ChEMBL document CHEMBL1201862, “PubChem BioAssay data set” (2004)
The source made the active and inactive calls.

What was measured:
Protein RecA = target: T1, Protein RecA (Mycobacterium tuberculosis, UniProt P9WHJ3); test: Fluorescence Cell-Free Homogeneous Dose Retest to Identify Inhibitors of RecA-Intein Splicing Activity. [Related pubchem assays (depositor defined):AID2097, AID2223, AID489010, AID492950]; assay type: functional
T1 sequence (P9WHJ3 whole entry): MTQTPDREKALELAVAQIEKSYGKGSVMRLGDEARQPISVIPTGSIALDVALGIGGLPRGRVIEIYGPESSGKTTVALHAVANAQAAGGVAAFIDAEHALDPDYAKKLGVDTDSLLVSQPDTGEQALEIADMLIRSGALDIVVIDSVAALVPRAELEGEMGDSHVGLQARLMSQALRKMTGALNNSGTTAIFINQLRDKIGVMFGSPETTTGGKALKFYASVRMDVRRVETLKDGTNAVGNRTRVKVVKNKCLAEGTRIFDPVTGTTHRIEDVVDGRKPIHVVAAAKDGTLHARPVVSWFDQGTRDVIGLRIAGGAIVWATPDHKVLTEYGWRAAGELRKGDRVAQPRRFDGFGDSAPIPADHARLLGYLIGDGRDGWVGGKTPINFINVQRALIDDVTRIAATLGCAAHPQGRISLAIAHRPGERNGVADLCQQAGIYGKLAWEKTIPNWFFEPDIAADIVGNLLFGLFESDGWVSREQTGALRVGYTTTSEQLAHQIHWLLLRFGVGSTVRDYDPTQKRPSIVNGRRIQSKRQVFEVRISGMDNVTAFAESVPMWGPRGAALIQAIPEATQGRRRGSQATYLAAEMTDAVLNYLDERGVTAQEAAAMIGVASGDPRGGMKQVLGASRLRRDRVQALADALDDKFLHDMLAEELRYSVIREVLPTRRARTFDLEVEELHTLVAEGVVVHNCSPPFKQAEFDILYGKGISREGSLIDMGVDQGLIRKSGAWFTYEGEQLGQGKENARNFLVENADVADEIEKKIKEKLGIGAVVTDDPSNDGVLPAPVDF

[1] = microbe, parasite or virus in culture; assay type: functional; settings: Mycobacterium tuberculosis
[2] = target: T2, Heat shock factor protein 1 (Mus musculus, UniProt P38532); test: enhancement of HSF1-driven luciferase signal – cell-based, NIH3T3, luminescence, dose retest, confirmation (AID 435004); assay type: functional;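 also: stress induced by proteasome inhibitor MG132 added 30 min after compound; luciferase reporter driven by HSF1 response element in NIH3T3 cells; actives raise luminescence as potentiators of the MG132 stress response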
T2 sequence (P38532 whole entry): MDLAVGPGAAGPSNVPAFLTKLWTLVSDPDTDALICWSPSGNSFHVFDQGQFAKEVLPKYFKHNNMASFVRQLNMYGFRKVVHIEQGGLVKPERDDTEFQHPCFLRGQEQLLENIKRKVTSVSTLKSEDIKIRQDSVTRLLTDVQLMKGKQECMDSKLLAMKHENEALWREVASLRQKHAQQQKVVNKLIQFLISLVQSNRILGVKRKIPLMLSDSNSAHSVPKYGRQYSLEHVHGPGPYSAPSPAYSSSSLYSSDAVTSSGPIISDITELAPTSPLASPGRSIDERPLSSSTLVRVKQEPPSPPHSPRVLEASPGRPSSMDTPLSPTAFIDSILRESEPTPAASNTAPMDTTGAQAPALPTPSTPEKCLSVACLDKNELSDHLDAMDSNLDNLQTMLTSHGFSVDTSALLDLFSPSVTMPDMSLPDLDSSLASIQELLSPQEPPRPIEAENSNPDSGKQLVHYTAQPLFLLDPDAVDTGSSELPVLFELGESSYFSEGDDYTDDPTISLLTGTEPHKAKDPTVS

[3] = target: T3, Replicative DNA helicase DnaB (Mycobacterium tuberculosis, UniProt P9WMR3); test: DnaB intein splicing inhibitors, dose response, biochemical, cell-free fluorescence (AID 449749); assay type: functional
T3 sequence (P9WMR3 whole entry): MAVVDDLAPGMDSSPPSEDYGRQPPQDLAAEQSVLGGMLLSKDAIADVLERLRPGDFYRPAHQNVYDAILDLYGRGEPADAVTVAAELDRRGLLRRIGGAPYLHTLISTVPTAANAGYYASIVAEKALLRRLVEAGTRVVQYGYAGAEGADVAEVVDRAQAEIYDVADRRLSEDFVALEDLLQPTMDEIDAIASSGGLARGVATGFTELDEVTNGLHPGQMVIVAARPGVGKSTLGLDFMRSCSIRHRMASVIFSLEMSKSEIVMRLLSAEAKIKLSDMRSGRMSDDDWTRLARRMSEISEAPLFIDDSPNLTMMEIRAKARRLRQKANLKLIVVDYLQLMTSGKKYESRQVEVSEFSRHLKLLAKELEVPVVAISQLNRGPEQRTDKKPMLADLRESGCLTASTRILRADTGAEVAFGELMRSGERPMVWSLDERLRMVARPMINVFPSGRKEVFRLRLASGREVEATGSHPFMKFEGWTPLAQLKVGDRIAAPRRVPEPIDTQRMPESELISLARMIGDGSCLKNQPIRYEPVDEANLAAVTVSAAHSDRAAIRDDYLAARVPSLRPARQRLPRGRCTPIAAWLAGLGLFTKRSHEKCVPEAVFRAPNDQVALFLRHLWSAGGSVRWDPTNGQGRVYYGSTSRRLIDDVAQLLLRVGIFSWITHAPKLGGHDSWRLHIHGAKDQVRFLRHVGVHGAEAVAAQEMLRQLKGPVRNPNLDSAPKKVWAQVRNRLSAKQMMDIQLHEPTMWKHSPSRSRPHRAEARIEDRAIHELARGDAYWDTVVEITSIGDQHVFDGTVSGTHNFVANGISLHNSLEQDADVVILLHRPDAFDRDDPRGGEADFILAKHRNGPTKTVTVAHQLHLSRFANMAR

[4] = Luminescence Cell-Based Dose Retest to Confirm Inhibitors of Cancer Stem Cells. [Related pubchem assays (depositor defined):AID2717, AID2721]; assay type: functional; settings: Homo sapiens
[5] = target: T4, Rac GTPase-activating protein 1 (Homo sapiens, UniProt Q9H0H5); test: blockers of MgcRacGAP-driven Rac1 GTP hydrolysis – biochemical, ADP Hunter fluorescence, primary and confirmatory, confirmation (AID 624330); assay type: functional
T4 sequence (Q9H0H5 whole entry): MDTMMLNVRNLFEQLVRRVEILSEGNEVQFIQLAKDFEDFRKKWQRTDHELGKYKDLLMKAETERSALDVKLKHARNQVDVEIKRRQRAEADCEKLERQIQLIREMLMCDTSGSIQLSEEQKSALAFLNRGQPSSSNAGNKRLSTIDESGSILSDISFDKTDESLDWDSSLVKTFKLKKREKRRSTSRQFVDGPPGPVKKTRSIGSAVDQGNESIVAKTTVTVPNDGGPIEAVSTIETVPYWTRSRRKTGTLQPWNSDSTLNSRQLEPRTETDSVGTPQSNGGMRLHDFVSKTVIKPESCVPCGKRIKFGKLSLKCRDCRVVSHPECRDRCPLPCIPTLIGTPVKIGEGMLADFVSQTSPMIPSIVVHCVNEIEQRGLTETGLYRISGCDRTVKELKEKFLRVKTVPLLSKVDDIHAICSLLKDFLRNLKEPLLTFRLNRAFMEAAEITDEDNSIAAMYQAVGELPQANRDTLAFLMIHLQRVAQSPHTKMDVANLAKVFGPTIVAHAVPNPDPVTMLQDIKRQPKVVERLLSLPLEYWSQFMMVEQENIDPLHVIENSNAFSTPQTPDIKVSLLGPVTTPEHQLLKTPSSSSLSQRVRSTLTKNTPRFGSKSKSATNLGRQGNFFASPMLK

INS1 = test: INS-1E survival protection against cytokine death – cell-based, luminescence, retest, dose response (AID 449756); assay type: functional; settings: Rattus norvegicus;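 also: cell death triggered by IL-1 beta plus TNF-alpha plus IFN-gamma mixture; protective hits raise ATP signal compared with cytokine alone wells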
H4 = test: Luminescence Cell-Based Dose Response HTS to Identify Activators of 5'UTR Stem-Loop Driven Prion Protein mRNA Translation in H4 Neuroglioblastoma Cells. [Related pubchem assays: 1829 (Project Summary), 1814 (Primary HTS)]; assay type: functional; settings: Homo sapiens
[6] = viability of uninfected HEp-2 cells – cell-based, HTS, cytotoxicity control for RSV inhibitor project, dose response (AID 2410); assay type: functional; settings: human respiratory syncytial virus
[7] = P. falciparum Dd2 growth inhibitors, dose response, SYBR Green, cherry-picked samples (AID 1159567); assay type: functional, cell-based
Cytochrome P450 2D6 = Cytochrome P450 2D6 (Homo sapiens, UniProt P10635);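 also: CYP2D6 member of a cytochrome P450 panel assay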
Sequence of Cytochrome P450 2D6 (P10635 whole entry): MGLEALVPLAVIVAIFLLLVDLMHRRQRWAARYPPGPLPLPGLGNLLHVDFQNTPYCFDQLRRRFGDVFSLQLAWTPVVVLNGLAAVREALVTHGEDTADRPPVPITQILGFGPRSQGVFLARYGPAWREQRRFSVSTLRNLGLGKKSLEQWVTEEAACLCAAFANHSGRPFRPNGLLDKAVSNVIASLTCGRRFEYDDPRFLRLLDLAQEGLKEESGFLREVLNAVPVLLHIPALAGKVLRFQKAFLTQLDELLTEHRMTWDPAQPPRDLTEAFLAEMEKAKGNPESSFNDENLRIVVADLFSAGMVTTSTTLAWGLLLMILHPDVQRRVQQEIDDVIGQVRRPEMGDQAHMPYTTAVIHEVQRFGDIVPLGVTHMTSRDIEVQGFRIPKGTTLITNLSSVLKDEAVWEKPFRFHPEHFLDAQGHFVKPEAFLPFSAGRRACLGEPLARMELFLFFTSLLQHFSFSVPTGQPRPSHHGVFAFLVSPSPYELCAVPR

Cytochrome P450 1A2 = target: T5, Cytochrome P450 1A2 (Homo sapiens, UniProt P05177);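 also: PubChem cytochrome P450 panel assay, CYP1A2 panel member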
T5 sequence (P05177 whole entry): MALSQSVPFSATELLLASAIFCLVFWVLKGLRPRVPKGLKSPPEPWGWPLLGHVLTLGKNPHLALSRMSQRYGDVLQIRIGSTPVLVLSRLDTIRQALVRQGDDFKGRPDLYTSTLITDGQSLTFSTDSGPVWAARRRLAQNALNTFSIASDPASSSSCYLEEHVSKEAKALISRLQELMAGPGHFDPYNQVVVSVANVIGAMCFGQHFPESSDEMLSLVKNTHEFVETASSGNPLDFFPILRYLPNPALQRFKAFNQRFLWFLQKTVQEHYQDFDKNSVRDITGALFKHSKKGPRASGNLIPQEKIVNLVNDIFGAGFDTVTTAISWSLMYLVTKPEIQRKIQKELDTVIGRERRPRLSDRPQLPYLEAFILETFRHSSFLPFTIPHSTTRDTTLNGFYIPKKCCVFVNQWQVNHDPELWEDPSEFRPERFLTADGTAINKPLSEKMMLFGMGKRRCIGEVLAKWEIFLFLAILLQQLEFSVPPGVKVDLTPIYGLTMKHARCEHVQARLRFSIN

Cytochrome P450 3A4 = Cytochrome P450 3A4 (Homo sapiens, UniProt P08684);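 also: CYP3A4 tested as one member of a cytochrome P450 panel screen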
Sequence of Cytochrome P450 3A4 (P08684 whole entry): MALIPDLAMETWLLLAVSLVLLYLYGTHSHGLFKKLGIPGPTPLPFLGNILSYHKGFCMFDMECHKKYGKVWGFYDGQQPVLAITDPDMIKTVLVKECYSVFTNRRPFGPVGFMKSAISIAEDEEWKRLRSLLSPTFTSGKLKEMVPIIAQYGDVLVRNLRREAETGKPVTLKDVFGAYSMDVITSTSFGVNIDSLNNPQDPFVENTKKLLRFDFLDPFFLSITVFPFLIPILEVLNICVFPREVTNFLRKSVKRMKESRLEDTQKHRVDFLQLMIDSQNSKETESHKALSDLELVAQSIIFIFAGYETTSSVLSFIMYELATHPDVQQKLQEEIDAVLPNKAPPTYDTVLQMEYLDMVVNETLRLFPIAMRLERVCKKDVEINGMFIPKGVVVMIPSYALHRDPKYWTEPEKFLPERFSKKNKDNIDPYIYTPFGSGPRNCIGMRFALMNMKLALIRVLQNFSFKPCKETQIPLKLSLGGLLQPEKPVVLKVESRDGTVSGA

[8] = Trypanosoma cruzi growth suppression in host cells – NIH3T3 host cells, beta-gal luminescence, confirmation (AID 2044); assay type: functional, cell-based;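 also: intracellular parasites grown in NIH/3T3 mouse fibroblasts as host cells; luminescent beta-galactosidase reporter signal from transgenic T. cruzi replicating inside host cells; inhibitors lower the luminescence signal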
[9] = NIH3T3 cell viability loss – ATP luminescence, mouse fibroblasts, counter-screen, dose response (AID 2010); assay type: functional, cell-based;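 also: cells exposed to compound for about 90 hours before reading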

Compound: CCOC(=O)c1nnc(-c2ccccc2)nc1Sc1ccccc1Cl
- EC50 (Protein RecA): 0.686 µM (active)
- CC50 [1]: > 40 µM (active)
- EC50 [2]: 8.48 µM (active)
- AC50 [3]: 2.36 µM (active)

Compound: COCCn1nnnc1C(c1cc2cc(OC)ccc2nc1O)N1CCC(Cc2ccccc2)CC1 (stereo not drawn)
- CC50 [1]: > 40 µM (active)

Compound: O=[N+]([O-])c1cc(Cl)c(O)c(-[n+]2c(-c3ccccc3)cc(-c3ccccc3)cc2-c2ccccc2)c1.[O-][Cl+3]([O-])([O-])[O-]
- CC50 [1]: > 40 µM (active)

Compound: COc1ccc(-n2c(Cc3cccn3C)nnc2SCC(=O)Nc2cccc(Cl)c2)cc1
- AC50 [4]: 125 µM (active)

Compound: CC(C(=O)N1CCCc2ccccc21)N1CCN(c2ccccn2)CC1 (stereo not drawn)
- IC50 [5]: 93.9 µM (active)

Compound: O=C1N=C(Nc2ccccc2)S/C1=C\C=C\c1ccco1
- CC50 [1]: 39.3 µM (active)

Compound: CN1CC(=O)N(CC(=O)Nc2ccc(N(C)C)cc2)c2ccccc2C1=O
- IC50 [5]: 56.7 µM (active)

Compound: Cc1ccc(C(C)(C)C)cc1S(=O)(=O)N1CCC(C(=O)N2CCN(c3ccc(O)cc3)CC2)CC1
- IC50 [5]: 99.1 µM (active)

Compound: CCn1c2ccccc2c2cc(NC(=O)c3cccc([N+](=O)[O-])c3)ccc21
- AC50 [4]: 1.62 µM (active)

Compound: COc1ccc(NC2CCCN(C(=O)c3cc(C)nc4cc(F)ccc34)C2)cc1 (stereo not drawn)
- IC50 [5]: 120 µM (active)

Compound: COc1ccc(-c2[nH]ncc2N=Nc2ccccc2)cc1
- AC50 [4]: 3.81 µM (active)

Compound: O=C(N/C(=C\c1ccc(O)cc1)C(=O)N1CCCCC1)c1ccccc1
- IC50 [5]: 47.3 µM (active)

Compound: C=C1[C@@H](O)[C@@H]2O[C@]3(CC[C@H](/C=C/[C@@H](C)[C@@H]4CC(C)=CC5(O[C@H](C[C@@](C)(O)C(=O)OC)CC[C@H]5O)O4)O3)CC[C@H]2O[C@@H]1[C@@H](O)C[C@H](C)[C@H]1OC2(CCCCO2)CC[C@H]1C (stereo partly drawn)
- AC50 [4]: < 0.16 µM (inconclusive)
- AC50 (INS1): < 0.195 µM (active)

Compound: O=C(N/N=C/c1sc(=O)n(-c2ccccc2)c1Cl)c1ccccc1
- EC50 (H4): 34.9 µM (inconclusive)

Compound: Cc1ccnc(Nc2nc(-c3ccc(O)cc3O)cs2)c1
- AC50 [4]: 12.3 µM (active)
- CC50 [6]: 25.8 µM (active)

Compound: COCC/N=C1/Sc2nc3ccc(C)cc3cc2CN1Cc1ccco1
- CC50 [1]: > 40 µM (active)

Compound: CCC(=O)Nc1ccc2c(c1)OC[C@H](C)N(Cc1ccccn1)C[C@H](C)[C@H](OC)CN(C)C2=O
- AC50 [7]: 15.3 µM (active)

Compound: COc1cccc(-c2ccc3c(c2)[C@H]2[C@H](CCN2C(=O)C2CCCC2)[C@H](CO)N3)c1
- AC50 [7]: 7.06 µM (active)

Compound: COc1cccc(-c2ccc([C@H]3[C@H](CO)N4CCCCN(CC5CC5)C[C@@H]34)cc2)c1
- AC50 [7]: 5.84 µM (active)

Compound: Cc1ccccc1-c1ccc([C@H]2[C@H]3CNC[C@@H]2N3S(=O)(=O)c2cccc(F)c2)cc1
- AC50 [7]: 35.7 µM (active)

Compound: CS(=O)(=O)N1[C@H](C#N)[C@H](c2ccccc2-c2ccccc2)[C@H]1CO
- AC50 [7]: > 36 µM (inactive)

Compound: CCCCCCCCSc1nnc(CSc2nc3nc(C)cc(C)n3n2)o1
- AC50 (Cytochrome P450 2D6): 28.2 µM (inconclusive)
- AC50 (Cytochrome P450 1A2): 31.6 µM (inconclusive)
- AC50 (INS1): 14.9 µM (active)
- AC50 (Cytochrome P450 3A4): 35.5 µM (inconclusive)

Compound: CCn1c2ccccc2c2cc(CN3CCN(Cc4cc(OC)ccc4O)CC3)ccc21
- EC50 [8]: 1.21 µM (active)
- CC50 [1]: > 40 µM (active)
- EC50 [9]: > 60 µM (not active)
